Results on 21 molecules are retold here after patent publication US11446287B2, “Compounds and methods for EP300 or CBP modulation and indications therefor” (Opna Immuno-Oncology SA, priority 2019, dated 2022).

The assay concerns the target T1, Recombinant human BRD4 containing dual bromodomains (BRD4-BD12 (1-477)) (Homo sapiens, UniProt O60885).
T1 construct: Recombinant human BRD4 containing dual bromodomains (BRD4-BD12 (1-477)); made in house; host or cells: E. coli BL21-CodonPlus (DE3), modified pET vector
As to the kind of experiment: BRD4 Alphascreen binding assay. The procedure, abridged:
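His-tagged human BRD4 tandem bromodomains (1-477, E. coli) incubated 1 h at room temperature with biotinylated tetra-acetylated H4 (1-21) peptide and compound in HEPES pH 7.5 buffer with 2 mM DTT. AlphaScreen signal read 30 min after adding beads (7.5 μg/ml); IC50 from four-parameter fit after normalization to controls.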

Regarding `Cc1noc(C)c1-c1cnc2c(c1)c(-c1ccc(C(N)=O)cc1)cn2C(c1ccccn1)C1CCCC1` (stereo not drawn) [P-0020, 4-(1-(cyclopentyl(pyridin-2-yl)methyl)-5-(3,5-dimethylisoxazol-4-yl)-1H-pyrrolo[2,3-b]pyridin-3-yl)benzamide], the IC50 was 1 to 8 µM.

For the molecule `CNC(=O)c1ccc(-c2cn(C(c3ccccn3)C3CCCC3)c3ncc(-c4c(C)noc4C)cc23)cc1` (stereo not drawn) [P-0021, 4-(1-(cyclopentyl(pyridin-2-yl)methyl)-5-(3,5-dimethylisoxazol-4-yl)-1H-pyrrolo[2,3-b]pyridin-3-yl)-N-methylbenzamide], the IC50 fell in the range of 1 to 8 µM.

In the case of `Cc1noc(C)c1-c1cnc2c(c1)c(-c1ccc(C#N)cc1)cn2C(c1ccccn1)C1CCCC1` (stereo not drawn) [P-0022, 4-(1-(cyclopentyl(pyridin-2-yl)methyl)-5-(3,5-dimethylisoxazol-4-yl)-1H-pyrrolo[2,3-b]pyridin-3-yl)benzonitrile], the IC50 lay in the range of 8 to 1000 µM.

Regarding `Cc1noc(C)c1-c1cnc2c(c1)c(-c1ccc3c(c1)CNC3=O)cn2C(c1ccccn1)C1CCCC1` (stereo not drawn) [P-0023, 5-(1-(cyclopentyl(pyridin-2-yl)methyl)-5-(3,5-dimethylisoxazol-4-yl)-1H-pyrrolo[2,3-b]pyridin-3-yl)isoindolin-1-one], the IC50 was in the range of 1 to 8 µM.

`Cc1noc(C)c1-c1cnc2c(c1)c(-c1ccc(-c3nn[nH]n3)cc1)cn2C(c1ccccn1)C1CCCC1` (stereo not drawn) [P-0024, 4-(3-(4-(2H-tetrazol-5-yl)phenyl)-1-(cyclopentyl(pyridin-2-yl)methyl)-1H-pyrrolo[2,3-b]pyridin-5-yl)-3,5-dimethylisoxazole]: the IC50 was 8 to 1000 µM.

`Cc1noc(C)c1-c1cnc2c(c1)c(-c1ccc(C(=O)O)c(F)c1)cn2C(c1ccccn1)C1CCCC1` (stereo not drawn) [P-0025, 4-(1-(cyclopentyl(pyridin-2-yl)methyl)-5-(3,5-dimethylisoxazol-4-yl)-1H-pyrrolo[2,3-b]pyridin-3-yl)-2-fluorobenzoic acid]: the IC50 lay in the range of 1 to 8 µM.

Consider `Cc1noc(C)c1-c1cnc2c(c1)c(-c1ccc(C(=O)O)nc1)cn2C(c1ccccn1)C1CCCC1` (stereo not drawn) [P-0026, 5-(1-(cyclopentyl(pyridin-2-yl)methyl)-5-(3,5-dimethylisoxazol-4-yl)-1H-pyrrolo[2,3-b]pyridin-3-yl)picolinic acid], for which the IC50 was 1 to 8 µM.

As for `Cc1cc(-c2c(C(F)(F)F)n([C@@H](C)c3ccccn3)c3cc(-c4c(C)noc4C)cnc23)ccc1C(=O)O` [P-0243, (S)-4-(6-(3,5-dimethylisoxazol-4-yl)-1-(1-(pyridin-2-yl)ethyl)-2-(trifluoromethyl)-1H-pyrrolo[3,2-b]pyridin-3-yl)-2-methylbenzoic acid], the IC50 fell in the range of 1 to 8 µM.

Turning to `COc1cc(-c2c(C(F)(F)F)n([C@@H](C)c3ccccn3)c3cc(-c4c(C)noc4C)cnc23)ccc1C(=O)O` [P-0244, (S)-4-(6-(3,5-dimethylisoxazol-4-yl)-1-(1-(pyridin-2-yl)ethyl)-2-(trifluoromethyl)-1H-pyrrolo[3,2-b]pyridin-3-yl)-2-methoxybenzoic acid], the IC50 was 1 to 8 µM.

Consider `Cc1noc(C)c1-c1cnc2c(-c3cccc(C(=O)O)c3F)c(C(F)(F)F)n([C@@H](C)c3ccccn3)c2c1` [P-0245, (S)-3-(6-(3,5-dimethylisoxazol-4-yl)-1-(1-(pyridin-2-yl)ethyl)-2-(trifluoromethyl)-1H-pyrrolo[3,2-b]pyridin-3-yl)-2-fluorobenzoic acid], for which the IC50 lay within 8 to 1000 µM.

With `Cc1noc(C)c1-c1cnc2c(-c3cccc(C(=O)O)c3C)c(C(F)(F)F)n([C@@H](C)c3ccccn3)c2c1` [P-0246, (S)-3-(6-(3,5-dimethylisoxazol-4-yl)-1-(1-(pyridin-2-yl)ethyl)-2-(trifluoromethyl)-1H-pyrrolo[3,2-b]pyridin-3-yl)-2-methylbenzoic acid], the IC50 was 8 to 1000 µM.

For the molecule `Cc1noc(C)c1-c1cnc2c(-c3cccc(C(=O)O)c3Cl)c(C(F)(F)F)n([C@@H](C)c3ccccn3)c2c1` [P-0247, (S)-2-chloro-3-(6-(3,5-dimethylisoxazol-4-yl)-1-(1-(pyridin-2-yl)ethyl)-2-(trifluoromethyl)-1H-pyrrolo[3,2-b]pyridin-3-yl)benzoic acid], the IC50 fell in the range of 8 to 1000 µM.

In the case of `CCOC(=O)c1cc(-c2cn(-c3ccc(F)cc3F)c3ncc(-c4c(C)noc4C)cc23)c(OCC)cc1O` [P-0248, ethyl 5-(1-(2,4-difluorophenyl)-5-(3,5-dimethylisoxazol-4-yl)-1H-pyrrolo[2,3-b]pyridin-3-yl)-4-ethoxy-2-hydroxybenzoate], the IC50 is 8 to 1000 µM.

Consider `CCOc1cc(O)c(C(=O)O)cc1-c1cn(-c2ccc(F)cc2F)c2ncc(-c3c(C)noc3C)cc12` [P-0249, 5-(1-(2,4-difluorophenyl)-5-(3,5-dimethylisoxazol-4-yl)-1H-pyrrolo[2,3-b]pyridin-3-yl)-4-ethoxy-2-hydroxybenzoic acid], for which the IC50 was 8 to 1000 µM.

Take `CCOc1cc(OC)c(C(=O)O)cc1-c1cn(-c2ccc(F)cc2F)c2ncc(-c3c(C)noc3C)cc12` [P-0250, 5-(1-(2,4-difluorophenyl)-5-(3,5-dimethylisoxazol-4-yl)-1H-pyrrolo[2,3-b]pyridin-3-yl)-4-ethoxy-2-methoxybenzoic acid]: the IC50 was in the range of 8 to 1000 µM.

Consider `Cc1noc(C)c1-c1cnc2c(c1)c(-c1ccc(C(=O)O)cc1OC(F)(F)F)cn2-c1cnccc1F` [P-0251, 4-(5-(3,5-dimethylisoxazol-4-yl)-1-(4-fluoropyridin-3-yl)-1H-pyrrolo[2,3-b]pyridin-3-yl)-3-(trifluoromethoxy)benzoic acid], for which the IC50 lay within 8 to 1000 µM.

In the case of `Cc1noc(C)c1-c1cnc2c(c1)c(-c1ccc(C(=O)O)cc1OC(F)(F)F)cn2-c1cnccc1O` [P-0252, 4-(5-(3,5-dimethylisoxazol-4-yl)-1-(4-hydroxypyridin-3-yl)-1H-pyrrolo[2,3-b]pyridin-3-yl)-3-(trifluoromethoxy)benzoic acid], the IC50 was 8 to 1000 µM.

For the molecule `Cc1noc(C)c1-c1cnc2c(c1)c(-c1ccc(C(=O)O)cc1OC(F)(F)F)cn2-c1ccncc1Cl` [P-0253, 4-(1-(3-chloropyridin-4-yl)-5-(3,5-dimethylisoxazol-4-yl)-1H-pyrrolo[2,3-b]pyridin-3-yl)-3-(trifluoromethoxy)benzoic acid], the IC50 fell in the range of 8 to 1000 µM.

As to `Cc1noc(C)c1-c1cnc2c(c1)c(-c1ccc(C(=O)O)cc1OC(F)(F)F)cn2-c1c(F)cccc1C#N` [P-0254, 4-(1-(2-cyano-6-fluorophenyl)-5-(3,5-dimethylisoxazol-4-yl)-1H-pyrrolo[2,3-b]pyridin-3-yl)-3-(trifluoromethoxy)benzoic acid], the IC50 was 1 to 8 µM.

As to `COc1cc(C(=O)O)cc(C)c1-c1cn(-c2ccccc2)c2ncc(-c3c(C)noc3C)cc12` [P-0255, 4-(5-(3,5-dimethylisoxazol-4-yl)-1-phenyl-1H-pyrrolo[2,3-b]pyridin-3-yl)-3-methoxy-5-methylbenzoic acid], the IC50 was 1 to 8 µM.

For `Cc1noc(C)c1-c1cnc2c(-c3ccc(C(=O)O)cc3C#N)c(C(F)(F)F)n([C@@H](C)c3ccccn3)c2c1` [P-0256, (S)-3-cyano-4-(6-(3,5-dimethylisoxazol-4-yl)-1-(1-(pyridin-2-yl)ethyl)-2-(trifluoromethyl)-1H-pyrrolo[3,2-b]pyridin-3-yl)benzoic acid], the half-inhibitory concentration (IC50) lay in the range of 8 to 1000 µM.
